| SMILES | melting point |
| --- | --- |
| Cc1ncn(-c2nc(-c3ccc(Cl)cc3)c(CCC(N)=O)o2)c1C [Example 19, 3-[4-(4-chlorophenyl)-2-(4,5-dimethyl-1-imidazolyl)-5-oxazolyl]propionamide] | 232 to 233 °C |
| NC(=O)CCc1oc(-c2ccc(F)cc2)nc1-c1ccc(Cl)cc1 [Example 23, 3-[4-(4-chlorophenyl)-2-(4-fluorophenyl)-5-oxazolyl]propionamide] | 212 to 213 °C |
| NC(=O)CCc1oc(-c2ccc3ccccc3c2)nc1-c1ccc(Cl)cc1 [Example 24, 3-[4-(4-chlorophenyl)-2-(2-naphthyl)-5-oxazolyl]propionamide] | 206 to 207 °C |
| NC(=O)CCc1oc(-c2cccs2)nc1-c1ccc(Cl)cc1 [Example 25, 3-[4-(4-chlorophenyl)-2-(2-thienyl)-5-oxazolyl]propionamide] | 226 to 227 °C |
| COc1ccc(-c2nc(-c3ccc(Cl)cc3)c(CCC(N)=O)o2)cc1 [Example 28, 3-[4-(4-chlorophenyl)-2-(4-methoxyphenyl)-5-oxazolyl]propionamide] | 215 to 216 °C |
| CCCc1nc(-c2ccc(Cl)cc2)c(CCC(N)=O)o1 [Example 29, 3-[4-(4-chlorophenyl)-2-propyl-5-oxazolyl]propionamide] | 150 to 151 °C |
| NC(=O)CCc1oc(N2CCN(c3ccccc3)CC2)nc1-c1ccc(Cl)cc1 [Example 31, 3-[4-(4-chlorophenyl)-2-(4-phenyl-1-piperazinyl)-5-oxazolyl]propionamide] | 187 to 188 °C |
| NC(=O)CCc1oc(Sc2ncccn2)nc1-c1ccc(Cl)cc1 [Example 33, 3-[4-(4-chlorophenyl)-2-(2-pyrimidinylsulfanyl)-5-oxazolyl]propionamide] | 194 to 195 °C |
| NC(=O)CCc1oc(Sc2ccccn2)nc1-c1ccc(Cl)cc1 [Example 36, 3-[4-(4-chlorophenyl)-2-(2-pyridinylsulfanyl)-5-oxazolyl]propionamide] | 162 to 163 °C |
| NC(=O)CCc1oc(Oc2ccccc2)nc1-c1ccc(Cl)cc1 [Example 38, 3-[4-(4-chlorophenyl)-2-phenoxy-5-oxazolyl]propionamide] | 139 to 140 °C |
| O=C(CCc1oc(-c2ccccc2)nc1-c1ccc(Cl)cc1)Nc1cccnc1 [Example 41, 3-[4-(4-chlorophenyl)-2-phenyl-5-oxazolyl]-N-(3-pyridinyl)propionamide] | 204 to 205 °C |
| COC(=O)c1ccc(NC(=O)CCc2oc(-c3ccccc3)nc2-c2ccc(Cl)cc2)cc1 [Example 42, 3-[4-(4-chlorophenyl)-2-phenyl-5-oxazolyl]-N-[4-(methoxycarbonyl)phenyl]propionamide] | 198 to 200 °C |
| NC(=O)CCc1oc(-c2ccccc2)nc1-c1ccc(Cl)cc1 [Example 43, 3-[4-(4-chlorophenyl)-2-phenyl-5-oxazolyl]propionamide] | 207 to 208 °C |
| CNS(=O)(=O)Cc1ccc(NC(=O)CCc2oc(-n3ccnc3)nc2-c2ccc(Cl)cc2)cc1 [Example 44, 3-[2-(1H-imidazol-1-yl)-4-(4-chlorophenyl)-5-oxazolyl]-N-(4-{[(methylamino)sulfonyl]methyl}phenyl)propionamide] | 224 to 225 °C |
| COC(=O)c1ccc(NC(=O)CCc2sc(-c3ccccc3)nc2-c2ccc(Cl)cc2)cc1 [Example 45, 3-[4-(4-chlorophenyl)-2-phenyl-5-thiazolyl]-N-[4-(methoxycarbonyl)phenyl]propionamide] | 177 to 178 °C |
| NC(=O)CCc1sc(-c2ccccc2)nc1-c1ccc(Cl)cc1 [Example 46, 3-[4-(4-chlorophenyl)-2-phenyl-5-thiazolyl]propionamide] | 175 to 176 °C |
| CCNC(=O)CCCc1oc(-c2ccccc2)nc1-c1ccc(Cl)cc1 [Example 49, N-ethyl-4-[4-(4-chlorophenyl)-2-phenyl-5-oxazolyl]butanamide] | 127 to 128 °C |
| COC(=O)c1ccc(NC(=O)CCCc2oc(-c3ccccc3)nc2-c2ccc(Cl)cc2)cc1 [Example 50, 4-[4-(4-chlorophenyl)-2-phenyl-5-oxazolyl]-N-[4-(methoxycarbonyl)phenyl]butanamide] | 170 to 171 °C |
| O=C(CCCc1oc(-c2ccccc2)nc1-c1ccc(Cl)cc1)N1CCN(c2ccccc2)CC1 [Example 51, 1-{4-[4-(4-chlorophenyl)-2-phenyl-5-oxazolyl]butanoyl}-4-phenylpiperazine] | 104 to 105 °C |
| NC(=O)CCCc1oc(-c2ccccc2)nc1-c1ccc(Cl)cc1 [Example 52, 4-[4-(4-chlorophenyl)-2-phenyl-5-oxazolyl]butanamide] | 168 to 169 °C |

| SMILES | melting point |
| --- | --- |
| NC(=O)/C=C/c1oc(-c2ccccc2)nc1-c1ccc(Cl)cc1 [Example 55, (2E)-3-[4-(4-chlorophenyl)-2-phenyl-5-oxazolyl]propenamide] | 240 to 241 °C |
| CCOC(=O)c1ccc(NC(=O)/C=C/c2oc(-c3ccccc3)nc2-c2ccc(Cl)cc2)cc1 [Example 56, (2E)-3-[4-(4-chlorophenyl)-2-phenyl-5-oxazolyl]-N-[4-(ethoxycarbonyl)phenyl]propenamide] | 135 to 140 °C |
| O=C(CCc1oc(-c2ccccc2)nc1-c1ccc(Cl)cc1)Nc1ccc(C(=O)O)cc1 [Example 63, 4-({3-[4-(4-chlorophenyl)-2-phenyl-5-oxazolyl]propanoyl}amino)benzoic acid] | 243 to 244 °C |
| O=C(CCc1sc(-c2ccccc2)nc1-c1ccc(Cl)cc1)Nc1ccc(C(=O)O)cc1 [Example 64, 4-({3-[4-(4-chlorophenyl)-2-phenyl-5-thiazolyl]propanoyl}amino)benzoic acid] | 294 to 295 °C |
| O=C(/C=C/c1oc(-c2ccccc2)nc1-c1ccc(Cl)cc1)Nc1ccc(C(=O)O)cc1 [Example 65, 4-({(2E)-3-[4-(4-chlorophenyl)-2-phenyl-5-oxazolyl]propenoyl}amino)benzoic acid] | 275 to 276 °C |
| NC(=O)c1ccc(NC(=O)CCc2oc(-c3ccccc3)nc2-c2ccc(Cl)cc2)cc1 [Example 66, 4-({3-[4-(4-chlorophenyl)-2-phenyl-5-oxazolyl]propanoyl}amino)benzamide] | 268 to 269 °C |
| NC(=O)c1ccc(NC(=O)CCc2sc(-c3ccccc3)nc2-c2ccc(Cl)cc2)cc1 [Example 67, 4-({3-[4-(4-chlorophenyl)-2-phenyl-5-thiazolyl]propanoyl}amino)benzamide] | ≥ 300 °C (dec.) |
| NC(=O)c1ccc(NC(=O)/C=C/c2oc(-c3ccccc3)nc2-c2ccc(Cl)cc2)cc1 [Example 68, 4-({(2E)-3-[4-(4-chlorophenyl)-2-phenyl-5-oxazolyl]propenoyl}amino)benzamide] | 274 to 275 °C |
| COc1ccccc1NC(=O)CCc1oc(-n2ccnc2C)nc1-c1ccc(Cl)cc1 [Example 71, 3-[4-(4-chlorophenyl)-2-(2-methyl-1-imidazolyl)-5-oxazolyl]-N-(2-methoxyphenyl)propionamide] | 153 to 154 °C |
| CCOC(=O)Cc1ccc(NC(=O)CCc2oc(-n3cnc4ccccc43)nc2-c2ccc(Cl)cc2)cc1 [Example 76, 3-[2-(1H-benzimidazol-1-yl)-4-(4-chlorophenyl)-5-oxazolyl]-N-[4-(ethoxycarbonylmethyl)phenyl]propionamide] | 181 to 182 °C |
| O=C(CCc1oc(-n2cnc3ccccc32)nc1-c1ccc(Cl)cc1)Nc1ccc(Cl)cc1 [Example 79, 3-[2-(1H-benzimidazol-1-yl)-4-(4-chlorophenyl)-5-oxazolyl]-N-(4-chlorophenyl)propionamide] | 248 to 249 °C |
| CN(Cc1ccc(NC(=O)CCc2oc(-n3cnc4ccccc43)nc2-c2ccc(Cl)cc2)cc1)C1CCOCC1 [Example 87, 3-[2-(1H-benzimidazol-1-yl)-4-(4-chlorophenyl)-5-oxazolyl)-N-(4-{[N-methyl-N-(4-tetrahydropyranyl)amino]methyl}phenyl)propionamide] | 182 to 184 °C |
| O=C(CCc1oc(-n2cnc3ccccc32)nc1-c1ccc(Cl)cc1)Nc1ccc(CN2CCCCC2)cc1 [Example 88, 3-[2-(1H-benzimidazol-1-yl)-4-(4-chlorophenyl)-5-oxazolyl]-N-{4-[(1-piperidinyl)methyl]phenyl}propionamide] | 194 to 195 °C |
| N#CCc1ccc(NC(=O)CCc2oc(-n3cnc4ccccc43)nc2-c2ccc(Cl)cc2)cc1 [Example 89, 3-[2-(1H-benzimidazol-1-yl)-4-(4-chlorophenyl)-5-oxazolyl]-N-[4-(cyanomethyl)phenyl]propionamide] | 212 to 214 °C |
| O=C(O)Cc1ccc(NC(=O)CCc2oc(-n3cnc4ccccc43)nc2-c2ccc(Cl)cc2)cc1 [Example 90, 4-({3-[2-(1H-benzimidazol-1-yl)-4-(4-chlorophenyl)-5-oxazolyl]propanoyl)amino}phenylacetic acid] | 247 to 248 °C |
| COC(=O)c1ccc(NC(=O)CCc2oc(-n3cnc4ccccc43)nc2-c2ccc(Cl)cc2)cc1 [Example 91, 3-[2-(1H-benzimidazol-1-yl)-4-(4-chlorophenyl)-5-oxazolyl]-N-[4-(methoxycarbonyl)phenyl]propionamide] | 249 to 250 °C |
| O=C(CCc1oc(-n2cnc3ccccc32)nc1-c1ccc(Cl)cc1)NCCc1ccccn1 [Example 92, 3-[2-(1H-benzimidazol-1-yl)-4-(4-chlorophenyl)-5-oxazolyl]-N-[2-(2-pyridinyl)ethyl]propionamide] | 150 to 151 °C |
| O=C(CCc1oc(-n2cnc3ccccc32)nc1-c1ccc(Cl)cc1)N1CCN(c2ccccn2)CC1 [Example 93, 1-{3-[2-(1H-benzimidazol-1-yl)-4-(4-chlorophenyl)-5-oxazolyl]propanoyl}-4-(2-pyridinyl)piperazine] | 174 to 176 °C |
| CN(Cc1ccc(NC(=O)CCc2oc(-c3ccccc3)nc2-c2ccc(Cl)cc2)cc1)C1CCOCC1 [Example 94, 3-[4-(4-chlorophenyl)-2-phenyl-5-oxazolyl]-N-(4-{[N-methyl-N-(4-tetrahydropyranyl)amino]methyl}phenyl)propionamide] | 154 to 155 °C |
| O=C(CCc1oc(-c2ccccc2)nc1-c1ccc(Cl)cc1)Nc1ccc(CN2CCCCC2)cc1 [Example 95, 3-[4-(4-chlorophenyl)-2-phenyl-5-oxazolyl]-N-{4-[(1-piperidinyl)methyl]phenyl}propionamide] | 223 to 225 °C |

— patent US7183276B2, “Azole compounds” (Takeda Pharmaceutical Company Limited, priority 2002, dated 2007)
